According to US4652636A, “Pentene-diphenyl-diglucoside containing compound” (priority 1982, dated 1987):

Legend:
Rabbits = assay: Acute toxicity evaluation of (I), rabbits; type: in vivo, rabbit; conditions: intravenous; for Mortality (Range %): dead/treated
Method: (§1) Solutions of (I) in distilled water were prepared with the required concentration. Administered volumes were kept constant at the rate of 10 cm^3 per kg. In each case equal numbers of males and females were treated with a single dose. All animals were observed over 7 days for signs of toxic and/or pharmaco-dynamic effects.
(§2) A necropsy was performed on all surviving animals.

Mouse sarcoma--Ms 52 B = assay: In vitro cytostatic cytotoxic effects, MS 52 B; type: cell-based; conditions: I 40 ng, 37° C.
Method: (§3) "In vitro" cytostatic cytotoxic effects with Hypoxis rooperi extracts (example 2(e)(i)) and Compound I Four different cell culture types were used:
i. Mouse sarcoma--Ms 52 B
(§4) Procedure: Trypsinized cells were harvested into MEM and suitably diluted to supply about 2×10^5 cells per cm^3. A culture flask containing 4,5 cm^3 of culture medium was seeded with 0.5 cm^3 of the prepared cell suspension. This cell culture was then incubated at 37° C. for 24 hours before the test substances dissolved in 0.5 cm^3 of the culture medium were added.

[1] = test system: Human foetal foreskin fibroblasts--HFSF; assay: In vitro cytostatic cytotoxic effects, HFSF (non-malignant); type: cell-based; conditions: I 40 ng, 37° C.
Method: as §3
iv. Human foetal foreskin fibroblasts--HFSF (non-malignant)
as §4

pregnant mouse foeti = assay: Foetotoxic-teratogenic effect of (I) in pregnant mice; type: in vivo, mouse (Swiss Webster); conditions: for No of foeti / No of implantation sites / No of live foeti / No of malformations: 6 mice
Method: Two groups of six fully impregnated mice (Swiss Webster offspring) were treated orally with aqueous solutions of (I) once per day (10 ml/kg) starting day 1 through to day 8 of the gestation period. On day 20 of the pregnancies the mice were lightly anaethetised with diethyl ether and the uterus exposed by caesarian section. The total number of implantation sites were counted. All foeti were removed and examined for
(b) macroscopic gross anatomical abnormalities of limbs and head.

Heha 229 = assay: In vitro cytostatic cytotoxic effects, Heha 229; type: cell-based; conditions: Heha 229, I 40 ng, 37° C.
Method: as §3, §4

Mouse melacoma--Mel B1-6 = assay: In vitro cytostatic cytotoxic effects, Mel B1-6; type: cell-based; conditions: Mel B1-6, I 40 ng, 37° C.
Method: as §3
ii. Mouse melacoma--Mel B1-6
as §4

[2] = Acute toxicity evaluation of (I), mouse; type: in vivo; conditions: in vivo, ip, mouse, intraperitoneal, dead/treated (range %)
Method: as §1, §2

Mouse = assay: Acute toxicity evaluation of (I), mouse; type: in vivo; conditions: for Mortality (Range %): dead/treated
Method: as §1, §2

With `OC[C@H]1O[C@@H](Oc2ccc(C#CC/C=C/c3ccc(O[C@@H]4O[C@H](CO)[C@@H](O)[C@H](O)[C@H]4O)c(O)c3)cc2O)[C@H](O)[C@@H](O)[C@@H]1O` [Compound I] the “Mortality (Range %)” value (Rabbits; 50 mg/kg) was 0/2, the “Mortality (Range %)” value (Rabbits; 100 mg/kg) was 0/2 and the “Remarks: macroscopic lesions” value (Rabbits; 50 and 100 mg/kg) was “no macropscopic”. For the same compound, the “Remarks: thrombophlebitis at the injection site” value (Rabbits; 50 and 100 mg/kg) was “No thrombophlebitis”, the “Remarks: visible effects” value (Rabbits; 50 and 100 mg/kg) was “No visible effects” and the Confluency (Mouse sarcoma--Ms 52 B; 24 hours) was 40%. It also gave a Confluency (Mouse sarcoma--Ms 52 B; 48 hours) of 20%, a Confluency (Mouse sarcoma--Ms 52 B; 72 hours) of 20% and a Confluency (Mouse sarcoma--Ms 52 B; 96 hours) of 20%. It also gave a Confluency ([1]; 24 hours) of 40%, a Confluency ([1]; 48 hours) of 50% and a Confluency ([1]; 72 hours) of 50%. For the same compound, the Confluency ([1]; 96 hours) was 40%, the No of foeti (pregnant mouse foeti; 20 mg/kg oral) was 52 and the “No of implantation sites” value (pregnant mouse foeti; 20 mg/kg oral) was 58. The “No of live foeti” value (pregnant mouse foeti; 20 mg/kg oral) was 50, the No of malformations (pregnant mouse foeti; 20 mg/kg oral) was 0 and the No of foeti (pregnant mouse foeti; 100 mg/kg oral) was 49. For the same compound, the “No of implantation sites” value (pregnant mouse foeti; 100 mg/kg oral) was 58, the “No of live foeti” value (pregnant mouse foeti; 100 mg/kg oral) was 45 and the No of malformations (pregnant mouse foeti; 100 mg/kg oral) was 3 (2?). For the same compound, the “abnormally reduced growth rate of the foeti” value (pregnant mouse foeti; any of the treated groups) was “no indications of abnormally reduced growth rate of the foeti”, the teratogenic effects (pregnant mouse foeti; at the doses administered) was “unlikely” and the “adverse effects in the treated mother animals” value (pregnant mouse foeti; treated mother animals) was “No adverse effects were detected”. It also gave a Confluency (Heha 229; 24 hours) of 50%, a Confluency (Heha 229; 48 hours) of 60% and a Confluency (Heha 229; 72 hours) of 50%. For the same compound, the Confluency (Heha 229; 96 hours) was 30%, the Confluency (Mouse melacoma--Mel B1-6; 24 hours) was 40% and the Confluency (Mouse melacoma--Mel B1-6; 48 hours) was 30%. It also gave a Confluency (Mouse melacoma--Mel B1-6; 72 hours) of 40%, a Confluency (Mouse melacoma--Mel B1-6; 96 hours) of 40% and a Confluency (Mouse melacoma--Mel B1-6; 120 hours) of 30%. The mortality at 168 h ([2]; 1000 mg/kg) was 16.7%, the mortality at 168 h ([2]; 2000 mg/kg) was 90% and the “direct toxic effects (conclusion)” value (Mouse; acute toxicity, single dose) was “low degree of direct toxic effects”. For the same compound, the “Mortality (Range %)” value (Mouse; mouse, intraperitoneal, 250 mg/kg) was 0/10, the “Mortality (Range %)” value (Mouse; mouse, intraperitoneal, 500 mg/kg) was 0/20 and the “Remarks: signs of discomfort” value (Mouse; mouse, intraperitoneal, all animals, increasing with dose) was “discomfort”. For the same compound, the “Mortality (Range %)” value (Mouse; mouse, oral, 1000 mg/kg) was 0/20, the “Mortality (Range %)” value (Mouse; mouse, oral, 2000 mg/kg) was 0/20 and the “Mortality (Range %)” value (Mouse; mouse, oral, 4000 mg/kg) was 0/20. The “Remarks: macroscopic lesions” value (Mouse; mouse, oral, 1000-4000 mg/kg, any animal) was “No macroscopic” and the “macroscopic lesions on necropsy” value (Mouse; surviving animals) was “No macroscopic lesions were observed”.
